{"source": "patent US20090004170A1", "about": "“COMPOSITION COMPRISING COENZYME Q10” (Kaneka Corporation, priority 2007, published 2009)", "origin": "cited, not measured here", "key": {"[1]": {"assay": "not given", "remark": "listed apart in the source"}}, "data": [{"smiles": "COC1=C(OC)C(=O)C(C/C=C(\\C)CC/C=C(\\C)CC/C=C(\\C)CC/C=C(\\C)CC/C=C(\\C)CC/C=C(\\C)CC/C=C(\\C)CC/C=C(\\C)CC/C=C(\\C)CCC=C(C)C)=C(C)C1=O", "note": "[coenzyme Q10]", "values": [{"measurement": "solubility in water", "result": "sparingly soluble"}, {"measurement": "absorbability by oral ingestion", "setting": "[1]", "result": "extremely low"}]}]}
